Reference: patent US9173875B2, “Treatment for nicotine-induced lung disease using peroxisome proliferator-activated receptor gamma agonists” (Los Angeles Biomedical Research Institute at Harbor-UCLA …, priority 2006, dated 2015)

Columns and labels:
WI38 cells [1] = experiment: Triglyceride uptake assay ([3H]triolein) in WI38 cells; assay type: cell-based, human
Description: (§1) The human embryonic cell line WI38 was obtained from American Type Culture Collection (Rockville, Md.). Cells were grown in MEM plus 10% FBS at 37° C. in six-well plates, four-well slides, and 60- and 100-mm culture dishes as needed.
The method used to quantitate triglyceride uptake by fetal rat lung fibroblasts has been described previously (Torday et al. (1995) Biochim Biophys Acta 1254: 198-206). Briefly, culture medium was replaced with DMEM containing 20% adult rat serum mixed with [3H]triolein (5 μCi/ml). The cells were incubated at 37° C. in 5% CO2+balance air for 4 h. At the termination of the incubation, the medium was decanted, the cells were rinsed twice with 1 ml of ice-cold MEM, and the cells were removed from the culture plate after a 5- to 10-min incubation with 2 ml of a 0.05% trypsin solution. An aliquot of the cell suspension was taken for protein assay (Bradford (1976) Anal Biochem 72: 248-254), and the remaining cell suspension was extracted for neutral lipid content.

WI38 cells [2] = test system: WI38 cells
[3] = test system: fetal alveolar type II (ATII) cells; experiment: In vivo ATII cell proliferation assay (PCNA and SP-C double labeling) after in utero nicotine; set-up: species or system Sprague-Dawley rat
fetal ATII cells = experiment: Ex vivo ATII cell proliferation assay (tetrazolium dye) after in utero nicotine; set-up: species or system Sprague-Dawley rat; settings: nicotine 1 mg/kg in utero; vs control, P<0.05, n=6
Description: Pathogen-free timed (embryonic day 0=day of mating) pregnant Sprague-Dawley rats (200-250 g body wt) were obtained from Charles River (Hollister, Calif.) at embryonic day 3 and allowed to acclimatize until embryonic day 6. […] The fetuses were extracted by cesarean section, and the lungs were snap frozen for later analysis or processed for ATII cell or fibroblast culture. […] Louis, Mo.; 0.25 mg/kg). All studies were approved by the Los Angeles Biomedical Research Institute Institutional Review Board and were conducted in accordance with the National Institutes of Health Guide for the Care and Use of Laboratory Animals. ATII cells were isolated using differential adherence in monolayer culture, as described previously (Battenburg et al. (1990) Biochim. Biophys. Acta 960: 441-456). Briefly, three to five […] used per preparation. The fetuses were delivered via cesarean section, and fetal lungs were placed in Hanks' balanced salt solution without calcium and magnesium. […] A Teflon stirring bar was used to further dissociate the lungs by mechanical disruption of the tissue during incubation in a 37° C. water bath. After the tissue was dispersed into a unicellular suspension, the cells were pelleted at 500 g for 10 min at room temperature in a 50-ml polystyrene centrifuge tube. […] The cell suspension was then added to 75-cm^2 (T-75) culture flasks for 30-60 min to allow for differential adherence of lung fibroblasts. The unattached cells were then transferred to another T-75 culture flask for an additional 60 min. After this second culture period, the medium and nonadherent cells were removed from the flask and diluted with 1 vol of culture medium. This diluted suspension was cultured overnight in a T-75 culture flask at 37° C. in a CO2 incubator to allow the ATII cells to adhere. […] According to the manufacturer's protocol, cell proliferation was determined by the tetrazolium dye assay, which is based on the conversion of a tetrazolium salt to a red formazan product by living cells (Cell Proliferation Assay, Promega).

WI38 cells [4] = experiment: Western blot of lipogenic and myogenic marker proteins in WI38 cells (nicotine with or without lipogenic pathway agonists); assay type: cell-based, human; settings: nicotine 1×10^−9, 7 days
Description: as §1
Western blotting was performed with modifications of methods described previously (Ayad and Wong (1998) Crit. Care Med 26: 1277-1282). […] Equal amounts of the protein (25 μg) from the supernatant were dissolved in electrophoresis sample buffer and were subjected to SDS-PAGE (4-12% gradient) followed by electrophoretic transfer to a nitrocellulose membrane. Nonspecific binding of antibody was blocked by washing with Tris-buffered saline (TBS) containing 5% milk for 1 h. The blot was then subjected to two brief washes with TBS plus 0.5% Tween 20, incubated in TBS plus 0.1% Tween 20 and the specific primary antibodies (PPAR 1:2,000, Alexis Biochemicals, San Diego, Calif.; -SMA 1:50,000, Sigma; ADRP 1:3,000, a kind gift from Dr. Constantine Londos, National Institute of Diabetes and Digestive and Kidney Diseases) overnight at 4° C. Blots were then washed in TBS plus 0.1% Tween 20 and then incubated for 1 h in secondary antibody, washed, and developed with a chemiluminescent substrate (ECL; Amersham, Arlington Heights, Ill.) following the manufacturer's protocol.

CN1CCCC1c1cccnc1 (stereo not shown) [nicotine]
decrease in triglyceride uptake (WI38 cells [1]; nicotine 1×10^−9 M for 24 h): ~30% | decrease in triglyceride uptake (WI38 cells [1]; nicotine 1×10^−9 M for 7 days): ~50% | expression of nACh receptors α3 and α7 (WI38 cells [2]): significant increases | increase in alveolar type II cell proliferation vs control group ([3]; nicotine 1 mg/kg i.p. once daily to dam, e6 to e20): 2 fold | ATII cell proliferation (PCNA and SP-C staining) ([3]; nicotine 1 mg/kg in utero, P<0.05, n=4): almost twofold increase | ATII cell proliferation, tetrazolium dye assay (fetal ATII cells): almost twofold increase | change in ADRP protein level (WI38 cells [4]): −20±3% | change in PPAR protein level (WI38 cells [4]): −24±2% | change in PTHrP receptor protein level (WI38 cells [4]): −31±7% | change in α-SMA protein level (WI38 cells [4]): +100±5%
